Tested on: LG0567-F671-PDC KRAS tumor spheroid viability
Assay: Anticancer human tumor LG0567-F671-PDC patient-derived lung adenocarcinoma cell line growth inhibition [KRAS2]
Settings: spheroids with HUVEC and MSC; for viability, T/C: stronger effect = lower value
Method in brief: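 KRAS-mutant tumor cells were grown as spheroids with HUVEC endothelial cells and human MSCs as stroma. Targeted agents were tested alone and with KRAS pathway inhibitors. Doses started at or near clinical Cmax, or 10 microM, descending half-log.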

[1] = curve of first compound, second compound 0.1 µM
[2] = curve of first compound, second compound 0.316 µM
[3] = curve of first compound, second compound 1 µM
[4] = curve of first compound, second compound 3.16 µM
[5] = curve of first compound, second compound 10 µM
[6] = second compound 0.1 µM, first compound 0.0316 µM
[7] = second compound 0.1 µM, first compound 0.1 µM
[8] = second compound 0.1 µM, first compound 0.316 µM
[9] = second compound 0.1 µM, first compound 1 µM
[10] = second compound 0.1 µM, first compound 3.16 µM
[11] = second compound 0.1 µM, first compound 10 µM
[12] = second compound 0.316 µM, first compound 0.0316 µM
[13] = second compound 0.316 µM, first compound 0.1 µM
[14] = second compound 0.316 µM, first compound 0.316 µM
[15] = second compound 0.316 µM, first compound 1 µM
[16] = second compound 0.316 µM, first compound 3.16 µM
[17] = second compound 0.316 µM, first compound 10 µM
[18] = second compound 1 µM, first compound 0.0316 µM
[19] = second compound 1 µM, first compound 0.1 µM
[20] = second compound 1 µM, first compound 0.316 µM
[21] = second compound 1 µM, first compound 1 µM
[22] = second compound 1 µM, first compound 3.16 µM
[23] = second compound 1 µM, first compound 10 µM
[24] = second compound 3.16 µM, first compound 0.0316 µM
[25] = second compound 3.16 µM, first compound 0.1 µM
[26] = second compound 3.16 µM, first compound 0.316 µM
[27] = second compound 3.16 µM, first compound 1 µM
[28] = second compound 3.16 µM, first compound 3.16 µM
[29] = second compound 3.16 µM, first compound 10 µM
[30] = second compound 10 µM, first compound 0.0316 µM
[31] = second compound 10 µM, first compound 0.1 µM
[32] = second compound 10 µM, first compound 0.316 µM
[33] = second compound 10 µM, first compound 1 µM
[34] = second compound 10 µM, first compound 3.16 µM
[35] = second compound 10 µM, first compound 10 µM
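Further: drug exposure lasted seven days after spheroids formed for three days.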
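Wherever viability, T/C is given: 100% = DMSO vehicle control viability.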

O=C(c1cc(Cc2n[nH]c(=O)c3ccccc23)ccc1F)N1CCN(C(=O)C2CC2)CC1
viability, T/C (compound 0.0316 µM): 103% [middle of 5 runs]
viability, T/C (compound 0.1 µM): 99.1% [middle of 5 runs]
viability, T/C (compound 0.316 µM): 98.6% [middle of 5 runs]
viability, T/C (compound 1 µM): 93.1% [middle of 5 runs]
viability, T/C (compound 3.16 µM): 93.5% [middle of 5 runs]
viability, T/C (compound 10 µM): 97.9% [middle of 5 runs]
IC50 (curve of compound): > 10000 nM

COc1cc(Nc2ncc3c(n2)-c2ccc(Cl)cc2C(c2c(F)cccc2OC)=NC3)ccc1C(=O)O + C=CC(=O)N1CCN(c2nc(=O)n(-c3c(C)ccnc3C(C)C)c3nc(-c4c(O)cccc4F)c(F)cc23)C(C)C1
IC50 [1]: < 31.6 nM
IC50 [2]: < 31.6 nM
IC50 [3]: < 31.6 nM
IC50 [4]: < 31.6 nM
IC50 [5]: < 31.6 nM
viability, T/C [6]: 25.7%
viability, T/C [7]: 24.3%
viability, T/C [8]: 25.9%
viability, T/C [9]: 24.3%
viability, T/C [10]: 22.8%
viability, T/C [11]: 21.6%
viability, T/C [12]: 12.2%
viability, T/C [13]: 11.9%
viability, T/C [14]: 11.1%
viability, T/C [15]: 11.3%
viability, T/C [16]: 11.4%
viability, T/C [17]: 9.24%
viability, T/C [18]: 27.2%
viability, T/C [19]: 23.6%
viability, T/C [20]: 23.5%
viability, T/C [21]: 24.6%
viability, T/C [22]: 25.7%
viability, T/C [23]: 21.6%
viability, T/C [24]: 23.8%
viability, T/C [25]: 20.6%
viability, T/C [26]: 20.2%
viability, T/C [27]: 22.2%
viability, T/C [28]: 21%
viability, T/C [29]: 20.6%
viability, T/C [30]: 23.3%
viability, T/C [31]: 23.5%
viability, T/C [32]: 23.8%
viability, T/C [33]: 24.4%
viability, T/C [34]: 22.5%
viability, T/C [35]: 29.5%

CC(=O)Nc1cccc(-n2c(=O)n(C3CC3)c(=O)c3c(Nc4ccc(I)cc4F)n(C)c(=O)c(C)c32)c1 + C=CC(=O)N1CCN(c2nc(=O)n(-c3c(C)ccnc3C(C)C)c3nc(-c4c(O)cccc4F)c(F)cc23)C(C)C1
IC50 [1]: < 0.1 nM
IC50 [2]: < 0.1 nM
IC50 [3]: < 0.1 nM
IC50 [4]: < 0.1 nM
IC50 [5]: < 0.1 nM
viability, T/C (second compound 0.1 µM, first compound 0.0001 µM): 26.4%
viability, T/C (second compound 0.1 µM, first compound 0.000316 µM): 25.5%
viability, T/C (second compound 0.1 µM, first compound 0.001 µM): 26.4%
viability, T/C (second compound 0.1 µM, first compound 0.00316 µM): 27.6%
viability, T/C (second compound 0.1 µM, first compound 0.01 µM): 12.1%
viability, T/C [6]: 4.13%
viability, T/C (second compound 0.316 µM, first compound 0.0001 µM): 24.9%
viability, T/C (second compound 0.316 µM, first compound 0.000316 µM): 24.7%
viability, T/C (second compound 0.316 µM, first compound 0.001 µM): 28.9%
viability, T/C (second compound 0.316 µM, first compound 0.00316 µM): 14.2%
viability, T/C (second compound 0.316 µM, first compound 0.01 µM): 8.8%
viability, T/C [12]: 2.68%
viability, T/C (second compound 1 µM, first compound 0.0001 µM): 30.5%
viability, T/C (second compound 1 µM, first compound 0.000316 µM): 28.2%
viability, T/C (second compound 1 µM, first compound 0.001 µM): 22.8%
viability, T/C (second compound 1 µM, first compound 0.00316 µM): 17.7%
viability, T/C (second compound 1 µM, first compound 0.01 µM): 8.78%
viability, T/C [18]: 3.83%
viability, T/C (second compound 3.16 µM, first compound 0.0001 µM): 26.7%
viability, T/C (second compound 3.16 µM, first compound 0.000316 µM): 27.7%
viability, T/C (second compound 3.16 µM, first compound 0.001 µM): 20.1%
viability, T/C (second compound 3.16 µM, first compound 0.00316 µM): 10.5%
viability, T/C (second compound 3.16 µM, first compound 0.01 µM): 10.7%
viability, T/C [24]: 3.27%
viability, T/C (second compound 10 µM, first compound 0.0001 µM): 20.3%
viability, T/C (second compound 10 µM, first compound 0.000316 µM): 18.9%
viability, T/C (second compound 10 µM, first compound 0.001 µM): 16.9%
viability, T/C (second compound 10 µM, first compound 0.00316 µM): 11.7%
viability, T/C (second compound 10 µM, first compound 0.01 µM): 6.78%
viability, T/C [30]: 4.36%

CC1OCC2(CCN(c3cnc(Sc4ccnc(N)c4Cl)c(N)n3)CC2)C1N (configuration not stated) + CNCc1ccccc1-c1csc(C(C)Nc2nc(C)nc3cc(OC)c(OC)cc23)c1
IC50 [1]: 68.1 nM
IC50 [2]: 53.3 nM
IC50 [3]: 75 nM
IC50 [4]: 221 nM
IC50 [5]: < 31.6 nM
viability, T/C [6]: 60.4%
viability, T/C [7]: 44.5%
viability, T/C [8]: 33.3%
viability, T/C [9]: 28.6%
viability, T/C [10]: 23.6%
viability, T/C [11]: 17.7%
viability, T/C [12]: 57.1%
viability, T/C [13]: 41.6%
viability, T/C [14]: 30%
viability, T/C [15]: 23.3%
viability, T/C [16]: 22.1%
viability, T/C [17]: 14.6%
viability, T/C [18]: 61.5%
viability, T/C [19]: 43.4%
viability, T/C [20]: 38.4%
viability, T/C [21]: 24.8%
viability, T/C [22]: 18.1%
viability, T/C [23]: 13.5%
viability, T/C [24]: 79.2%
viability, T/C [25]: 65.7%
viability, T/C [26]: 43.8%
viability, T/C [27]: 13.4%
viability, T/C [28]: 3.22%
viability, T/C [29]: 3.6%
viability, T/C [30]: 0.2%
viability, T/C [31]: 0.17%
viability, T/C [32]: 0.16%
viability, T/C [33]: 0.14%
viability, T/C [34]: 0.13%
viability, T/C [35]: 0.2%

Cn1nccc1Nc1nccc(-c2cc3c(s2)C(C)(C)N(CCN2CCOCC2)C3=O)n1 + COc1cc2nc(C)nc(NC(C)c3cc(N)cc(C(F)(F)F)c3)c2cc1OC1CCOC1
IC50 [1]: 495 nM
IC50 [2]: 456 nM
IC50 [3]: 506 nM
IC50 [4]: 528 nM
IC50 [5]: 609 nM
viability, T/C [6]: 79.7%
viability, T/C [7]: 67%
viability, T/C [8]: 55.3%
viability, T/C [9]: 43.2%
viability, T/C [10]: 31.3%
viability, T/C [11]: 26.6%
viability, T/C [12]: 80.5%
viability, T/C [13]: 70.7%
viability, T/C [14]: 53.9%
viability, T/C [15]: 42.1%
viability, T/C [16]: 25.3%
viability, T/C [17]: 26.1%
viability, T/C [18]: 68.2%
viability, T/C [19]: 68%
viability, T/C [20]: 54.8%
viability, T/C [21]: 41.5%
viability, T/C [22]: 30.3%
viability, T/C [23]: 25.5%
viability, T/C [24]: 71.1%
viability, T/C [25]: 65.6%
viability, T/C [26]: 56.5%
viability, T/C [27]: 42.9%
viability, T/C [28]: 30.8%
viability, T/C [29]: 30.2%
viability, T/C [30]: 74.6%
viability, T/C [31]: 72.2%
viability, T/C [32]: 55.8%
viability, T/C [33]: 45.4%
viability, T/C [34]: 33.4%
viability, T/C [35]: 29.5%
